Measured values from patent US20140024123A1, “Aqueous Solution Containing Partial Ras Polypeptide and Method for Screening Inhibitor of Ras Function” (priority 2011, published 2014).

Key:
[1] = biological target: T1, human H-Ras polypeptide (amino acid residues 1 to 166) binding to human c-Raf-1 (amino acid residues 51 to 130) (Homo sapiens, UniProt P01112); experiment: Biochemical activity verification test: inhibition of Ras-Raf binding (GST-Raf pull-down of GTPγ[35S]-labeled Ras, scintillation counting); conditions: compound at various concentrations in 10% DMSO; FIG. 4
T1 construct: a human H-Ras polypeptide (amino acid residues 1 to 166) was used as Ras; GST (N, cleaved yes); made in house; host or cells: Escherichia coli
T1 sequence (P01112 1-166): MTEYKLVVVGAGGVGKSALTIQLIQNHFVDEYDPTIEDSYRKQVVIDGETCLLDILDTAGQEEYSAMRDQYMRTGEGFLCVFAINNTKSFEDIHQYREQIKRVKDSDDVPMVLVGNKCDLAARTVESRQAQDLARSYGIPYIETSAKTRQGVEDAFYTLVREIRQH
Text: In this experimental example, a human H-Ras polypeptide (amino acid residues 1 to 166) was used as Ras, and a GTP analog (GTPγS (Roche Diagnostics)) was used as GTP. Further, human c-Raf-1 (amino acid residues 51 to 130) was used as Raf, a target protein of Ras.
A fused protein of Raf, a target protein of Ras, and glutathione S-transferase (GST) was expressed in Escherichia coli using a vector for GST-fused protein expression (pGEX-6P-1 vector (GE Healthcare)). The expressed GST-Raf-fused protein was immobilized onto an affinity carrier for purification (glutathione Sepharose 4B: resin (GE Healthcare)).
GTPγ[^35S] (Perkin Elmer), one of the GTP analogs, was added to Ras from which a GST tag was cleaved with a protease for GST-fused protein cleavage (PreScission protease (GE Healthcare)) to produce radiolabeled Ras.
The resin in the reaction liquid was washed, and then a complex of the GST-Raf-fused protein and the radiolabeled Ras was eluted by adding glutathione. A radioactivity of the eluate was subjected to scintillation counting, to thereby measure a binding activity of Ras to Raf, and inhibitory activities on Ras-Raf binding with various compounds were evaluated.

[2] = system: culture cell lines having a mutation in an active form of any one of H-Ras, N-Ras, and K-Ras; experiment: Cytological activity verification test: anchorage-independent cell growth (soft agar colony formation); assay type: cell-based; conditions: 0.6% agarose, 37° C., 2 weeks, colonies with diameter of 50 μm or more, relative to compound-free control (100%); FIG. 5
Procedure: The number of appeared colonies each having a size with a diameter of 50 μm or more was measured. For a medium in which each of the culture cell lines was suspended in a system free of each of the compounds, the number of colonies was similarly measured and used as a control (100%). Each of the compounds was evaluated for its inhibitory activity on colony formation (inhibitory activity on anchorage-independent cell growth) by calculating inhibition ratio for colony formation of the compound administration group relative to the control.

| SMILES | inhibitory activity on Ras-Raf binding [1] | inhibitory activity on colony formation (anchorage-independent cell growth) [2] |
| --- | --- | --- |
| Cc1ccc(NC(=S)NNc2c([N+](=O)[O-])cc(C(F)(F)F)cc2[N+](=O)[O-])cc1Cl [Compound (II)] | found to interact with Ras | found to have a colony formation inhibition effect on each cell |
| O=[N+]([O-])c1ccc(NNC(=S)Nc2ccc(F)cc2)c([N+](=O)[O-])c1 [Compound (III)] | found to interact with Ras | found to have a colony formation inhibition effect on each cell |
| O=[N+]([O-])c1cc(C(F)(F)F)cc([N+](=O)[O-])c1NNC(=S)Nc1ccc(F)cc1 [Compound (IV)] | found to interact with Ras | found to have a colony formation inhibition effect on each cell |
